From US20070049518A1, “Novel method of treatment of inflammatory skin conditions” (priority 2005, published 2007)

Tests used:
[1] = molecular target: T1, purified aureolysin type I (Staphylococcus aureus, UniProt P81177); assay: biochemical
T1 construct: purchased BioCentrum Ltd

human MMP-1 = molecular target: T2, human MMP-1 (Homo sapiens, UniProt P03956); assay: MMP enzyme inhibition assay, MMP-1; format: biochemical; conditions: pH 7.5, 37° C., 1 hour
T2 construct: purchased Calbiochem
T2 sequence (P03956 100-469): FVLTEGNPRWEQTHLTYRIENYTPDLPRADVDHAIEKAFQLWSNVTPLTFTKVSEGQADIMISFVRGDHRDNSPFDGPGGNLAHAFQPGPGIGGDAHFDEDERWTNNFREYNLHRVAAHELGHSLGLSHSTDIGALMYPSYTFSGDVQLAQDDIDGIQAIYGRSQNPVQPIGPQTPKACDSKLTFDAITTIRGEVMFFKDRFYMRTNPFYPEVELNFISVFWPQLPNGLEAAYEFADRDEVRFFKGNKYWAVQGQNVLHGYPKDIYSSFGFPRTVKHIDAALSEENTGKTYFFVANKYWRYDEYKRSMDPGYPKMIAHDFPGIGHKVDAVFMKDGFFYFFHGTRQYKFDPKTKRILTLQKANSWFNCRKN

human MMP-8 = molecular target: T3, human MMP-8 (Homo sapiens, UniProt P22894); assay: MMP enzyme inhibition assay, MMP-8; format: biochemical; conditions: pH 7.5, 37° C., 1 hour
T3 construct: purchased Calbiochem
T3 sequence (P22894 101-467): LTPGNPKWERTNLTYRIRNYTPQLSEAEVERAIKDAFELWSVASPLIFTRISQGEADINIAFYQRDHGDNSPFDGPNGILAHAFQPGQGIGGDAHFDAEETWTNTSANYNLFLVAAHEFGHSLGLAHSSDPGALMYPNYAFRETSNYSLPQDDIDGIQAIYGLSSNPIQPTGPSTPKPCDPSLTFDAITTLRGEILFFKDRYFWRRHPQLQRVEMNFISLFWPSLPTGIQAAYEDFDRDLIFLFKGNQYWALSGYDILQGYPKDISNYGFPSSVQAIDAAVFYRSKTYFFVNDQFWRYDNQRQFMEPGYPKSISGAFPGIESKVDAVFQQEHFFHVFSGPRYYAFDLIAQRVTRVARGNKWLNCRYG

S. aureus 8325-4 = assay: S. aureus growth by turbidometry in micro-titre plates; format: cell-based, Staphylococcus aureus; conditions: for inhibition at 100 µM: Staphylococcus aureus, 83254, growth inhibition, overnight, absorbance 620 nm, read-out: Inhibition at 0.1 mM
Protocol: Tryptic soy broth (0.18 ml) containing S. aureus 8325-4 (approximately 10^5 cells) was mixed with 20 μl 20% (v/v) DMSO vehicle±compound in the wells of a flat-bottomed clear polystyrene 96-well micro-titre plate. The plate was incubated overnight at 37° C./220 rpm and the absorbance measured at 620 nm the following day.

staphopain B = molecular target: T4, staphopain B (Staphylococcus aureus, UniProt P0C1S6); assay: Selectivity profile, staphopain B; format: biochemical; conditions: read-out: inhibition at 0.1 mM, Staphopain B
T4 construct: purchased BioCentrum Ltd
T4 sequence (P0C1S6 220-393): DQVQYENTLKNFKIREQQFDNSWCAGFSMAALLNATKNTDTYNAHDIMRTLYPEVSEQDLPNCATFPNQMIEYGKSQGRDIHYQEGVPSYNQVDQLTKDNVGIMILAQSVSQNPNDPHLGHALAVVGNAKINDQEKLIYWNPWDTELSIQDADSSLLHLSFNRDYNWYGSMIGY
Protocol: (§1) Inhibitory activity was tested in reaction mixtures (0.1 ml) containing 2% (v/v) DMSO vehicle±compound plus additions as follows. V8 protease: 90 mM MOPS (sodium) buffer pH 7.0, […] calcium chloride, 0.045% Brij 35, 10 μM Mca-Leu-Glu-Val-Asp-Gly-Trp-Lys(Dnp)-amide (Bachem) and V8 (BioCentrum Ltd; 30 ng). Staphopain A and B: 90 mM MOPS (sodium) buffer pH 7.0, 1.8 mM cysteine-HCl (pH-adjusted with NaOH), 0.045% Brij 35, 0.1 mM Z-Phe-Arg-AMC hydrochloride (Bachem) and staphopain A or B (BioCentrum Ltd; 30 ng). Human kallikrein 5: 0.1M sodium phosphate buffer pH 8.0, 0.045% Brij 35, 0.1 mM Boc-Val-Pro-Arg-AMC (Sigma) and recombinant human kallikrein 5 (R&D Systems Inc; 6 ng). Human kallikrein 7: 72 mM Tris-HCl pH 8.0, 0.033% Brij 35, 1.2 mM S-2586 (Chromogenix Instrumentation Laboratory SpA) and recombinant human kallikrein 7 (R&D Systems Inc; 0.6 μg) that had been thermolysin-activated according to the manufacturer's instructions. Human angiotensin-converting enzyme (ACE): 45 mM MES (sodium) buffer pH 6.5, 0.045% Brij 35, 10 μM Mca-[…]Dnp)-OH(R&D Systems Inc) and recombinant human ACE (R&D Systems Inc; 1.3 ng). Human cathepsin D: 0.1M sodium acetate buffer pH 3.5, 0.2M sodium chloride, 0.045% Brij 35, 10 μM Mca-Pro-Leu-Gly-Leu-Dap(Dnp)-Ala-Arg-amide (Bachem) and recombinant human cathepsin D (R&D Systems Inc; 8 ng) activated according to the manufacturer's instructions. […]

[2] = test system: Aureolysin in S. aureus 8325-4 culture supernatant; assay: Aureolysin activity in supernatant of S. aureus grown with compound; format: cell-based, Staphylococcus aureus
Protocol: Duplicate samples of brain heart infusion medium (5 ml; Becton Dickinson and Co.) containing 10% skimmed milk and 2% (v/v) DMSO vehicle±Compound 12 were inoculated with S. aureus 8325-4 (approximately 10^7 cells in tryptic soy broth) and incubated for 16 h at 37° C./220 rpm. Cultures were centrifuged to remove bacteria and the culture supernatants stored at −70° C. pending analysis of protease activity.
Enzyme activities were measured in mixtures containing 90 mM MOPS (sodium) buffer pH 7.0 (0.1 ml), 0.045% Brij 35, 2% (v/v) DMSO vehicle±Compound 12 and culture supernatant (4 μl). The concentration of compound used was the same as that which had been used to culture the assayed sample. Further additions to the reaction mixtures were as follows. Aureolysin assay: 4.5 mM calcium chloride, 9 μM E-64 (to inhibit cysteine protease activity) and 10 μM Mca-Pro-Leu-Gly-Leu-Dap(Dnp)-Ala-Arg-amide (Bachem); V8 protease assay: 10 μM Mca-Leu-Glu-Val-Asp-Gly-Trp-Lys(Dnp)-amide (Bachem); cysteine protease assay: 1.8 mM cysteine-HCl (pH-adjusted with NaOH), 9 mM EDTA and 0.1 mM Z-Phe-Arg-AMC hydrochloride (Bachem). The rate of product formation at 37° C. was monitored over 6 h taking readings at 15 min intervals using a POLARstar OPTIMA plate reader (BMG LABTECH Ltd) with 320 nm excitation/405 nm emission for aureolysin and V8 assays and 390 nm excitation/460 nm emission for the cysteine protease assay. Enzyme activities were determined from the linear rate of fluorescence increase and converted to percent inhibition by reference to vehicle control samples.

[3] = molecular target: T5, recombinant human kallikrein 5 (Homo sapiens, UniProt Q9Y337); assay: Selectivity profile, kallikrein 5; format: biochemical; conditions: read-out: inhibition at 0.1 mM, Kallikrein 5
T5 construct: purchased R&D Systems Inc
T5 sequence (Q9Y337 23-293): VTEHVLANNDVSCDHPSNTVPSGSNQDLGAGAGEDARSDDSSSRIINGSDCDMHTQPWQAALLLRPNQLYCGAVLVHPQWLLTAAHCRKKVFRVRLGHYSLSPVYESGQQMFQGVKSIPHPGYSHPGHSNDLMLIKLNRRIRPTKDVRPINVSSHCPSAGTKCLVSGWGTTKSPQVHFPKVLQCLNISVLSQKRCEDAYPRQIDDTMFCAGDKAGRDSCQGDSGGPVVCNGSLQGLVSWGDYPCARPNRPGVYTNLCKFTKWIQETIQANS
Protocol: as §1

T1 sequence (P81177 209-509): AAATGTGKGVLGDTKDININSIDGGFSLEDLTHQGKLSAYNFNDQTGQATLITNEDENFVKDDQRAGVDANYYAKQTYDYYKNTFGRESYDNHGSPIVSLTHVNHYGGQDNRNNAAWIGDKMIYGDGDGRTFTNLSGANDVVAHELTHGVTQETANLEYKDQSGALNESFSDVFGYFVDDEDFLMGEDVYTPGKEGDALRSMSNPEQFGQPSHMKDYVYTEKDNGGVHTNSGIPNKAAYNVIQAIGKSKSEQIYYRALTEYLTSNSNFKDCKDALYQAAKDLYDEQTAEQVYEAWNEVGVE

SMILES	IC50 [1] [nM]	IC50 (human MMP-1) [nM]	IC50 (human MMP-8) [nM]	inhibition at 100 µM (S. aureus 8325-4) [%]	anti-bacterial activity (in words) (S. aureus 8325-4; data in Tables 10 and 11)	inhibition at 100 µM (staphopain B) [%]	Inhibition (%) Aureolysin ([2]; Compound 12 40 μM in culture and assay) [%]	Inhibition (%) Aureolysin ([2]; Compound 12 79 μM in culture and assay) [%]	Inhibition (%) Aureolysin ([2]; Compound 12 159 μM in culture and assay) [%]	Inhibition (%) Aureolysin ([2]; Compound 12 317 μM in culture and assay) [%]	inhibition at 100 µM [3] [%]
CNC(=O)[C@@H](NC(=O)[C@@H](CC(=O)NO)CC(C)C)C(C)(C)C [Compound 11, (R)—N1-((S)-3,3-dimethyl-1-(methylamino)-1-oxobutan-2-yl)-N4-hydroxy-2-isobutylsuccinamide]	1300	2.8	1.4	2	not anti-bacterial	11					
CNC(=O)[C@@H](NC(=O)[C@H](CC(=O)NO)CC(C)C)C(C)(C)C [Compound 12, (S)—N1-((S)-3,3-dimethyl-1-(methylamino)-1-oxobutan-2-yl)-N4-hydroxy-2-isobutylsuccinamide]	1300	2300	1400	0		10	89	94	98	99	0
